# According to patent US4472382A, “Treatment method” (Roussel Uclaf, priority 1979, dated 1984):
# Entries after “also recorded” stand apart in the source; their conditions may differ.
# Assays:
# [1] = tested on: testicular steriodogenosis; assay: Inhibitory activity on testicular steroidogenesis in a patient with prostate cancer; format: in vivo, human; conditions: intranasal 500 μg twice a day
# Description: The inhibitory activity of [D Ser (Tbu)^6, des Gly NH2^10 ] […] The results are reported in the graphs of sheet 2 of the Figures.
# [2] = tested on: ovarian steroidogenosis; assay: Inhibitory activity on ovarian steroidogenesis in women; format: in vivo
# Description: The inhibitory activity of [D Ser (Tbu)^6, des Gly NH2^10 ] LH--RH ethylamide on ovarian steroidogenosis in women was determined on 6 women aged 26 to 35 years with normal and regular menstrual cycles and without prior endocrinal or gynecological problems. The study was conducted for 6 consecutive cycles consisting of 2 pretreatment cycles, 2 treatment cycles and 2 post-treatment cycles. Two drops of a solution containing 500 μg of [D Ser (Tbu)^6, des Gly NH2^10 ] LH--RH ethylamide were deposited on each nostril at 8 A.M. and 5 P.M. of a day between the 4th and 9th day after the peak of LH-day 0. Daily blood samples were taken between 4 and 6 P.M. to measure seric levels of LH, FSH, progesterone and estradiol which were determined by radioimmuno-logictests with double antibodies. The antibodies to measure LH and FSH were furnished by the National Pituitory Agency of N.I.H. of Bethesda, Md.
# Estradiol and progesterone were measured with highly specific antibodies developed against 7-(O-carboxymethyl)-oxime of estradiol and 12-(O-carboxymethyl)-oxime of progesterone, respectively [3H] 17β-estradiol and ^125 I-progesterone-12-[O-carboxymethyl)-oxime]used as tracers. The serum was extracted with benzene and the steroids were separated with a LH-20 column before the determination. The radioimmunological results were exploited by the program derived from model II of Rodbard and Lewald as in Example 1 and the statistical significance was measured by the multiple level test of Ducan-Kramer of Example 1. The results are shown in the graphs of sheets 3 to 5 of the Figures.
# [3] = tested on: testicular steroidogensis; assay: Inhibitory activity against testicular steroidogenesis in men in good health, single intranasal administration; format: in vivo
# Description: The said product was administered intranasally at a dose of 500 μg in a few drops of distilled water at 8 A.M. on the third day of the test. For 2 days prior to the treatment and for 6 days after the treatment, samples of blood were taken daily at 8 A.M., 3 P.M. and 10 P.M. On the day of administration of the LH--RH agonist, blood samples were taken at 11 A.M. and 6 P.M.
# The seric concentrations of LH and FSH were measured by radioimmuno-logic dosages with double antibodies and the antibodies for measuring LH and FSH were furnished by the National Pituitary Agency of N.I.H. in Bethesda, Md. The seric concentrations of steroids was measured by radioimmuno-logic dosages in which one ml of serum was extracted with ether and the steroids were separated on a LH-20 column before measuring with radioimmuno-logic dosages. The radioimmuno-logic dosage results were determined by a program derived from model II of Rodbard et al [Second Karolinska Symposium on Research Methods in Reproductive Endrocrinology, Diczfalusky Editor, Copenhague (1970), p. 79-103]. The statistical significance was determined by the "multiple level test" of Duncan-Kramer [Kramer, Biometrics, Vol. 12 (1956), p. 307]. The results are shown in the graphs on sheet 1 of the Figures filed herewith.
# [4] = intranasal 500 μg at 8 A.M. and 5 P.M. of one day in the luteal phase, typical subject of sheet 3
# [5] = men, intranasal 500 μg, 3rd day following administration
smiles,measurement,setting,value
"CCNC(=O)[C@@H]1CCCN1C(=O)[C@H](CCCNC(=N)N)NC(=O)[C@H](CC(C)C)NC(=O)[C@@H](COC(C)(C)C)NC(=O)[C@H](Cc1ccc(O)cc1)NC(=O)[C@H](CO)NC(=O)[C@H](Cc1c[nH]c2ccccc12)NC(=O)[C@H](Cc1c[nH]cn1)NC(=O)[C@@H]1CCC(=O)N1 [[D Ser (Tbu)^6, des Gly NH2^10] LH--RH ethylamide]",level of androgenic steroids,[1],diminution
same,level of testosterone,[1]; two weeks of treatment,stabilized at a very low level
same,"progesterone level, cycles of post-treatment, % of the control values (pretreatment cycles = 100%)",[2]; 12 cycles of post-treatment,99%
same,"progesterone level, cycles of treatment, % of the control values (pretreatment cycles = 100%)",[2]; 12 cycles of treatment,46%
same,level of progesterone reduced as compared to the controls,"[2]; 12 cycles, sheet 5, scale 13 to 127%",46%
same,"reduction of seric levels of progesterone as compared to the controls, first cycle of treatment",[2]; [4],13%
same,"reduction of seric levels of progesterone as compared to the controls, second cycle of treatment",[2]; [4],34%
same,level of seric progesterone in the 2 cycles of post-treatment,[2]; post-treatment cycles,return to normal
same,duration of the drop of seric levels of the steroids (testosterone and its precursors),"[3]; human, single intranasal dose of 500 μg",3 days
same,diminution of the level of testosterone,"[3]; human, single intranasal dose of 500 μg, 3rd day following administration",50%
same,level of testosterone / steroids on the fourth day after administration,"[3]; human, single intranasal dose of 500 μg, fourth day (until the 6th day)",returned to normal; also recorded: return to normal levels
same,concentration of 17-OH-progesterone relative to the initial control values,[3]; [5],40%
same,concentration of testosterone relative to the initial control values,[3]; [5],50%
same,LH and FSH plasmatic levels,"[3]; men, intranasal 500 μg, after administration",increase
same,"seric concentration of pregnenolone, 17-OH-pregnenolone, progesterone, 17-OH-progesterone, Δ5-androstene-3β,17β-diol and testosterone","[3]; men, intranasal 500 μg, on the day of treatment",increased
